A short description of data set [1]: Stability in rat microsomes assessed as compound remaining measured after 90 mins. Type of data set: ADME, Microsome. As to conditions: read-out: Stability.
In data set [2] the target is Kir3.2/Kir3.3 (Homo sapiens) (UniProt P48051+Q92806). In words: Modulation of GIRK2/3 (unknown origin) by thallium-flux based assay. The format is protein-complex assay.
For data set [3], the target named is T1, Kir3.1/Kir3.4 (Homo sapiens, UniProt P48544+P48549).
T1 sequence (P48549 whole entry): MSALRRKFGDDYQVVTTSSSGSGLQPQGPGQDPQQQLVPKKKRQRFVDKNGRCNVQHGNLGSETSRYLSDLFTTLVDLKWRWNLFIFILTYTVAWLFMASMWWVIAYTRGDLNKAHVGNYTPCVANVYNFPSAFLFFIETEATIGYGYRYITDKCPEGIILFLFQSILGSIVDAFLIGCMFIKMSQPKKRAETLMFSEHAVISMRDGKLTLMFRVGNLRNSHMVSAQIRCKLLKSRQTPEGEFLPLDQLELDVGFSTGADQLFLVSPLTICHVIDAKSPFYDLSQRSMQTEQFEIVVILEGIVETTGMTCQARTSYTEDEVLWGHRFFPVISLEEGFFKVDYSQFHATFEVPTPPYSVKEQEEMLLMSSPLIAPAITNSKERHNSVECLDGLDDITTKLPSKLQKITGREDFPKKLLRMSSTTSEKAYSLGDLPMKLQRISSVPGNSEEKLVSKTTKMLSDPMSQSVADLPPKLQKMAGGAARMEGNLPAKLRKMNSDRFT
T1 sequence (P48544 whole entry): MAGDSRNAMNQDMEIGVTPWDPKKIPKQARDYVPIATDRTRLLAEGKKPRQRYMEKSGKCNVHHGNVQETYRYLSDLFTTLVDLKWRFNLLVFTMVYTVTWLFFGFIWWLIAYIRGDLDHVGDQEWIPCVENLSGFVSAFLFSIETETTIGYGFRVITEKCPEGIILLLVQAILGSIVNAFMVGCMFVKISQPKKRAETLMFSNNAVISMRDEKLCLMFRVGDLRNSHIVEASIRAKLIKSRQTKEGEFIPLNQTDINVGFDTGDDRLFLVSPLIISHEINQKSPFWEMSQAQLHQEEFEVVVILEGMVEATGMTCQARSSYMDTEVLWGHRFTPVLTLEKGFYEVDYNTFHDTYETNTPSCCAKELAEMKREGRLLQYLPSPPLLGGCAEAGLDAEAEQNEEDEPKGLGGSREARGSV
In words: Activation of GIRK1/4 (unknown origin) by thallium-flux based assay. Type of data set: protein-complex assay.

The target in data set [4] is Kir3.1/Kir3.4 (Homo sapiens) (UniProt P48549+P48544). In words: Activation of GIRK1/4 (unknown origin) by thallium-flux based assay relative to ML297. Type of data set: protein-complex assay.
Data set [5] has as its target T2, Kir3.1/Kir3.2 (Homo sapiens, UniProt P48051+P48549).
T2 sequence (P48549 whole entry): T1 sequence (P48549 whole entry)
T2 sequence (P48051 whole entry): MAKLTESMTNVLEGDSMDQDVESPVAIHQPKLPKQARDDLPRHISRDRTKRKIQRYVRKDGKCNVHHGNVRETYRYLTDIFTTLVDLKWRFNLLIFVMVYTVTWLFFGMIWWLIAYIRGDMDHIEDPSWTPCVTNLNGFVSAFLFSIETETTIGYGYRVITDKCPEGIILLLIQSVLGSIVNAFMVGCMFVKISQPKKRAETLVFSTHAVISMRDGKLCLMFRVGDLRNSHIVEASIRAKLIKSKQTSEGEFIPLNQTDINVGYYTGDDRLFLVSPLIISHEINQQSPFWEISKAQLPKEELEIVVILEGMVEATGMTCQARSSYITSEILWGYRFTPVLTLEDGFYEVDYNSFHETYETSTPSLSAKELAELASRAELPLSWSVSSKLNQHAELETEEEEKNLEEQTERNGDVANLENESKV
The data set can be described thus: Activation of GIRK1/2 (unknown origin) by thallium-flux based assay. Type of data set: protein-complex assay.

Data set [6] addresses Kir3.1/Kir3.2 (Homo sapiens) (UniProt P48549+P48051). The data set can be described thus: Activation of GIRK1/2 (unknown origin) by thallium-flux based assay relative to ML297. The format is protein-complex assay.

The source made the active and inactive calls. No cut-off for these calls is given here.

Take `Cc1cc(NC(=O)Nc2ccc(F)c(F)c2)n(-c2ccccc2)n1`: the remaining at […] in data set [1] is 45%. Further, in data set [2], the outcome was inactive.
The EC50 is the concentration that produces a half-maximal response. Consider `Cc1cc(NC(=O)Nc2cc(C3CC3C)nn2CC(F)(F)F)ccc1F` (stereo unspecified), for which the values for the EC50 in data set [3] and in data set [5] were 1.2 µM and 0.7 µM, respectively. The Efficacy in data set [4] is 35%; in data set [6], 81%.
For `CC1CC1c1cc(NC(=O)Nc2ccc(C(F)(F)F)cc2)n(CC(F)(F)F)n1` (stereo unspecified), in that order: 2 µM, 0.31 µM, 100% and 70%.
In the same order, the values of `CC1CC1c1cc(NC(=O)Nc2cccc(F)c2)n(CC(F)(F)F)n1` (stereo unspecified) are 1 µM, 0.31 µM, 100% and 101%.
Turning to `Cc1ccc(NC(=O)Nc2cc(C3CC3C)nn2CC(F)(F)F)cc1` (stereo unspecified), the figures for the EC50 in data set [3] and in data set [5] were 2.3 µM and 0.27 µM, respectively. Moreover, the Efficacy in data set [4] came to 100%; in data set [6], 67%.
In the same order, the values of `CC1CC1c1cc(NC(=O)Nc2ccc(F)c(F)c2)n(CC(F)(F)F)n1` (stereo unspecified) are 4.9 µM, 4.9 µM, 112% and 100%.
For `CC1CC1c1cc(NC(=O)Nc2ccc(Cl)cc2)n(CC(F)(F)F)n1` (stereo unspecified), in that order: 1.8 µM, 0.15 µM, 100% and 66%.

(Values after ChEMBL document CHEMBL3352610, “Discovery of potent and selective GIRK1/2 modulators via 'molecular switches' within a series of 1-(3-cyclopropyl-1-phenyl-1H-pyrazol-5-yl)ureas” (Bioorg Med Chem Lett, 2014).)
